Reference: BindingDB's records for doi:10.1021/cc990074a (Ariad Pharmaceuticals, 2000)

target: Proto-oncogene tyrosine-protein kinase Src (Homo sapiens); experiment: Compounds were tested for binding to Src SH2 using a fluorescence polarization binding assay according to methods previously described. IC50 values were assigned to individual compounds according to their competitive binding affinity versus a high-affinity peptide probe, fluorescein-pTyr-pTyr-pTyr-Ile-Glu-NH2.

Row | Structure (SMILES) | IC50
1 | COc1ccc(C(C)NC(=O)C(Cc2ccc(OP(=O)(O)O)cc2)NC(C)=O)cc1C(N)=O (stereo not drawn) [Src SH2 inhibitor, 1b] | 37 µM
2 | NC(=O)c1cc(CNC(=O)c2ccc(OP(=O)(O)O)cc2)ccc1OCC1CCCCC1 [Src SH2 inhibitor, 3] | 6.5 µM
3 | O=C(NCc1ccc(OCC2CCCCC2)cc1)c1ccc(OP(=O)(O)O)cc1 [Src SH2 inhibitor, 4] | > 100 µM
